# In ChEMBL document CHEMBL4308841, “Synthesis, in vitro antiproliferative activity, and kinase inhibitory effects of pyrazole-containing diarylureas and diarylamides” (Eur J Med Chem, 2018):
# How the values were obtained:
# HCT-15 = experiment: Growth inhibition of human HCT15 cells assessed as cell growth at 10 uM incubated for 48 hrs by sulforhodamine B assay relative to control; type: functional; conditions: HCT-15, 48 h, read-out: Activity
# A549 = experiment: Growth inhibition of human A549/ATCC cells assessed as cell growth at 100 uM incubated for 48 hrs by sulforhodamine B assay relative to control; type: functional; conditions: A549, 48 h, read-out: Activity
# T47D = experiment: Growth inhibition of human T47D cells incubated for 48 hrs by sulforhodamine B assay; type: functional, cell-based
# IGROV-1 = experiment: Growth inhibition of human IGROV1 cells assessed as cell growth at 10 uM incubated for 48 hrs by sulforhodamine B assay relative to control; type: functional; conditions: IGROV-1, 48 h, read-out: Activity
# OVCAR-4 = experiment: Growth inhibition of human OVCAR4 cells assessed as cell growth at 10 uM incubated for 48 hrs by sulforhodamine B assay relative to control; type: functional; conditions: OVCAR-4, 48 h, read-out: Activity
# Malme-3M = experiment: Growth inhibition of human MALME-3M cells assessed as cell growth at 10 uM incubated for 48 hrs by sulforhodamine B assay relative to control; type: functional; conditions: read-out: Activity
# DU-145 [1] = experiment: Growth inhibition of human DU145 cells incubated for 48 hrs by sulforhodamine B assay; type: functional, cell-based; conditions: DU-145, 48 h
# OVCAR-3 [2] = experiment: Growth inhibition of human OVCAR3 cells assessed as cell growth at 10 uM incubated for 48 hrs by sulforhodamine B assay relative to control; type: functional; conditions: OVCAR-3, 48 h, read-out: Activity
# NCI-H23 = experiment: Growth inhibition of human NCI-H23 cells assessed as cell growth at 10 uM incubated for 48 hrs by sulforhodamine B assay relative to control; type: functional; conditions: NCI-H23, 48 h, read-out: Activity
# CCRF-CEM = experiment: Growth inhibition of human CCRF-CEM cells assessed as cell growth at 0.1 uM incubated for 48 hrs by sulforhodamine B assay relative to control; type: functional; conditions: read-out: Activity
# SW-620 = experiment: Growth inhibition of human SW620 cells assessed as cell growth at 10 uM incubated for 48 hrs by sulforhodamine B assay relative to control; type: functional; conditions: SW-620, 48 h, read-out: Activity
# OVCAR-3 [3] = experiment: Growth inhibition of human OVCAR3 cells assessed as cell growth at 0.01 uM incubated for 48 hrs by sulforhodamine B assay relative to control; type: functional; conditions: OVCAR-3, 48 h, read-out: Activity
# HOP-62 = experiment: Growth inhibition of human HOP62 cells assessed as cell growth at 10 uM incubated for 48 hrs by sulforhodamine B assay relative to control; type: functional; conditions: HOP-62, 48 h, read-out: Activity
# NCI-H226 = experiment: Growth inhibition of human NCI-H226 cells incubated for 48 hrs by sulforhodamine B assay; type: functional, cell-based; conditions: NCI-H226, 48 h
# NCI/ADR-RES = experiment: Growth inhibition of human NCI/ADR-RES cells assessed as cell growth at 10 uM incubated for 48 hrs by sulforhodamine B assay relative to control; type: functional; conditions: read-out: Activity
# COLO 205 = experiment: Growth inhibition of human COLO205 cells assessed as cell growth at 10 uM incubated for 48 hrs by sulforhodamine B assay relative to control; type: functional; conditions: COLO 205, 48 h, read-out: Activity
# DU-145 [4] = experiment: Growth inhibition of human DU145 cells assessed as cell growth at 10 uM incubated for 48 hrs by sulforhodamine B assay relative to control; type: functional; conditions: DU-145, 48 h, read-out: Activity
# OVCAR-8 = experiment: Growth inhibition of human OVCAR8 cells assessed as cell growth at 10 uM incubated for 48 hrs by sulforhodamine B assay relative to control; type: functional; conditions: OVCAR-8, 48 h, read-out: Activity
# UACC-62 = experiment: Growth inhibition of human UACC62 cells assessed as cell growth at 10 uM incubated for 48 hrs by sulforhodamine B assay relative to control; type: functional; conditions: UACC-62, 48 h, read-out: Activity
# RPMI-8226 = experiment: Growth inhibition of human RPMI8226 cells assessed as cell growth at 10 uM incubated for 48 hrs by sulforhodamine B assay relative to control; type: functional; conditions: RPMI-8226, 48 h, read-out: Activity
# CAKI-1 = experiment: Growth inhibition of human Caki1 cells incubated for 48 hrs by sulforhodamine B assay; type: functional, cell-based; conditions: CAKI-1, 48 h
# LOX IMVI = experiment: Growth inhibition of human LOXIMVI cells assessed as cell growth at 100 uM incubated for 48 hrs by sulforhodamine B assay relative to control; type: functional; conditions: read-out: Activity
# SN12C = experiment: Growth inhibition of human SN12C cells assessed as cell growth at 10 uM incubated for 48 hrs by sulforhodamine B assay relative to control; type: functional; conditions: read-out: Activity
# SK-MEL-28 = experiment: Growth inhibition of human SK-MEL-28 cells assessed as cell growth at 0.01 uM incubated for 48 hrs by sulforhodamine B assay relative to control; type: functional; conditions: SK-MEL-28, 48 h, read-out: Activity
# Hs-578T = experiment: Growth inhibition of human Hs578T cells assessed as cell growth at 10 uM incubated for 48 hrs by sulforhodamine B assay relative to control; type: functional; conditions: read-out: Activity
# U-251 = experiment: Growth inhibition of human U251 cells assessed as cell growth at 10 uM incubated for 48 hrs by sulforhodamine B assay relative to control; type: functional; conditions: U-251, 48 h, read-out: Activity
# MDA-MB-231 = experiment: Growth inhibition of human MDA-MB-231 cells assessed as cell growth at 10 uM incubated for 48 hrs by sulforhodamine B assay relative to control; type: functional; conditions: MDA-MB-231, 48 h, read-out: Activity
# SK-OV-3 = experiment: Growth inhibition of human SKOV3 cells assessed as cell growth at 10 uM incubated for 48 hrs by sulforhodamine B assay relative to control; type: functional; conditions: SK-OV-3, 48 h, read-out: Activity
# K562 = experiment: Growth inhibition of human K562 cells assessed as cell growth at 10 uM incubated for 48 hrs by sulforhodamine B assay relative to control; type: functional; conditions: K562, 48 h, read-out: Activity
# DU-145 [5] = experiment: Growth inhibition of human DU145 cells assessed as cell growth at 100 uM incubated for 48 hrs by sulforhodamine B assay relative to control; type: functional; conditions: DU-145, 48 h, read-out: Activity
# SF-268 = experiment: Growth inhibition of human SF268 cells assessed as cell growth at 10 uM incubated for 48 hrs by sulforhodamine B assay relative to control; type: functional; conditions: SF-268, 48 h, read-out: Activity
# [6] = read-out: LC50 (the source's name)
# [7] = read-out: pLC50 (the source's name) (converted)
structure (smiles),measurement,setting,value
O=C(Nc1cccc(-n2cc(-c3ccncc3)c(-c3cc(O)cc(Cl)c3)n2)c1)c1cc(C(F)(F)F)cc(C(F)(F)F)c1,growth at 10 µM,HCT-15,30.1%
same,growth at 100 µM,A549,4%
same,GI50,T47D; read-out: GI50,2.99 µM
same,CC50,T47D; [6],> 100 µM
same,TGI,T47D; read-out: TGI,94.6 µM
same,GI50,T47D; read-out: pGI50 (converted),3.02 µM
same,CC50,T47D; [7],> 100 µM
same,TGI,T47D; read-out: pTGI (converted),95.5 µM
same,growth at 10 µM,IGROV-1,73%
same,growth at 10 µM,OVCAR-4,59.6%
same,growth at 10 µM,Malme-3M,61.8%
same,GI50,DU-145 [1]; read-out: GI50,5.1 µM
same,CC50,DU-145 [1]; [6],> 100 µM
same,TGI,DU-145 [1]; read-out: TGI,> 100 µM
same,GI50,DU-145 [1]; read-out: pGI50 (converted),5.25 µM
same,CC50,DU-145 [1]; [7],> 100 µM
same,TGI,DU-145 [1]; read-out: pTGI (converted),> 100 µM
same,growth at 10 µM,OVCAR-3 [2],15.2%
same,growth at 10 µM,NCI-H23,42.7%
same,growth at 0.1 µM,CCRF-CEM,97%
same,growth at 10 µM,SW-620,61%
same,growth at 0.01 µM,OVCAR-3 [3],102%
same,growth at 10 µM,HOP-62,58.3%
same,GI50,NCI-H226; read-out: GI50,1.51 µM
same,LC50,NCI-H226; read-out: LC50,> 100 µM
same,TGI,NCI-H226; read-out: TGI,> 100 µM
same,GI50,NCI-H226; read-out: pGI50 (converted),16.2 µM
same,LC50,NCI-H226; read-out: pLC50 (converted),> 100 µM
same,TGI,NCI-H226; read-out: pTGI (converted),> 100 µM
same,growth at 10 µM,NCI/ADR-RES,46.9%
same,growth at 10 µM,COLO 205,38.7%
same,growth at 10 µM,DU-145 [4],62.1%
same,growth at 10 µM,OVCAR-8,39.6%
same,growth at 10 µM,UACC-62,69.3%
same,growth at 10 µM,RPMI-8226,32.1%
same,GI50,CAKI-1; read-out: GI50,3.57 µM
same,CC50,CAKI-1; [6],> 100 µM
same,TGI,CAKI-1; read-out: TGI,> 100 µM
same,GI50,CAKI-1; read-out: pGI50 (converted),3.63 µM
same,CC50,CAKI-1; [7],> 100 µM
same,TGI,CAKI-1; read-out: pTGI (converted),> 100 µM
same,growth at 100 µM,LOX IMVI,-41%
same,growth at 10 µM,SN12C,50.3%
same,growth at 0.01 µM,SK-MEL-28,99%
same,growth at 10 µM,Hs-578T,65.9%
same,growth at 10 µM,U-251,37.2%
same,growth at 10 µM,MDA-MB-231,-34.6%
same,growth at 10 µM,SK-OV-3,68.8%
same,growth at 10 µM,K562,20.4%
same,growth at 100 µM,DU-145 [5],23%
same,growth at 10 µM,SF-268,69.3%
COc1cc(Cl)cc(-c2nn(-c3cccc(NC(=O)Nc4ccc(Cl)c(C(F)(F)F)c4)c3)cc2-c2ccncc2)c1,growth at 10 µM,HCT-15,7.28%
same,growth at 100 µM,A549,-76%
same,GI50,T47D; read-out: GI50,1.25 µM
same,CC50,T47D; [6],> 100 µM
same,TGI,T47D; read-out: TGI,80.2 µM
same,GI50,T47D; read-out: pGI50 (converted),1.26 µM
same,CC50,T47D; [7],> 100 µM
same,TGI,T47D; read-out: pTGI (converted),7.94 µM
same,growth at 10 µM,IGROV-1,30.2%
same,growth at 10 µM,OVCAR-4,16.6%
same,growth at 10 µM,Malme-3M,-19.8%
same,GI50,DU-145 [1]; read-out: GI50,1.55 µM
same,CC50,DU-145 [1]; [6],55.2 µM
same,TGI,DU-145 [1]; read-out: TGI,14 µM
same,GI50,DU-145 [1]; read-out: pGI50 (converted),1.86 µM
same,CC50,DU-145 [1]; [7],56.2 µM
same,TGI,DU-145 [1]; read-out: pTGI (converted),14.1 µM
same,growth at 10 µM,OVCAR-3 [2],-22.6%
same,growth at 10 µM,NCI-H23,0.3%
same,growth at 0.1 µM,CCRF-CEM,97%
same,growth at 10 µM,SW-620,12.7%
same,growth at 0.01 µM,OVCAR-3 [3],91%
same,growth at 10 µM,HOP-62,13.5%
same,GI50,NCI-H226; read-out: GI50,2.5 µM
same,LC50,NCI-H226; read-out: LC50,> 100 µM
same,TGI,NCI-H226; read-out: TGI,14.7 µM
same,GI50,NCI-H226; read-out: pGI50 (converted),2.51 µM
same,LC50,NCI-H226; read-out: pLC50 (converted),> 100 µM
same,TGI,NCI-H226; read-out: pTGI (converted),14.8 µM
same,growth at 10 µM,NCI/ADR-RES,6.07%
same,growth at 10 µM,COLO 205,-48.3%
same,growth at 10 µM,DU-145 [4],15.2%
same,growth at 10 µM,OVCAR-8,8.71%
same,growth at 10 µM,UACC-62,6.62%
same,growth at 10 µM,RPMI-8226,-29.1%
same,GI50,CAKI-1; read-out: GI50,0.615 µM
same,CC50,CAKI-1; [6],> 100 µM
same,TGI,CAKI-1; read-out: TGI,94.3 µM
same,GI50,CAKI-1; read-out: pGI50 (converted),0.813 µM
same,CC50,CAKI-1; [7],> 100 µM
same,TGI,CAKI-1; read-out: pTGI (converted),10.2 µM
same,growth at 100 µM,LOX IMVI,-34%
same,growth at 10 µM,SN12C,13.8%
same,growth at 0.01 µM,SK-MEL-28,98%
same,growth at 10 µM,Hs-578T,14.6%
same,growth at 10 µM,U-251,-48.3%
same,growth at 10 µM,MDA-MB-231,-30.8%
same,growth at 10 µM,SK-OV-3,11.9%
same,growth at 10 µM,K562,8.93%
same,growth at 100 µM,DU-145 [5],-71%
same,growth at 10 µM,SF-268,22.9%
